Entries after “also recorded” stand apart in the source; their conditions may differ.
What was measured:
P. aeruginosa = settings: cited from earlier work
P. aeruginosa PA14 [1] = test: Static biofilm formation assay; type: cell-based, Pseudomonas aeruginosa
Description: Overnight culture of P. aeruginosa PA14 (OD595=1.0) was diluted (1:20) with the AB medium (300 mM NaCl, 50 mM MgSO4, 0.2% vitamin-free casamino acids, 10 mM potassium phosphate, 1 mM L-arginine, and 1% glucose, pH 7.5) (1:20) containing with either positive controls or synthesized compounds (0-100 μM). The dilutions were aliquoted into borosilicate bottles, and the bottles were incubated at 37° C. for 24 h without agitation. After that, OD595 of the cell suspension was measured on the VICTOR ×5 multimode plate reader. The biofilm cells attached to the bottle were washed two times with phosphate buffered saline (PBS; 137 mM NaCl, 2.7 mM KCl, 10 mM Na2HPO4, and 2 mM KH2PO4, pH 7.2) and stained with 0.1% crystal violet for […] Next, the stained biofilm cells were eluted with 100% ethyl alcohol, and OD540 was measured on the VICTOR ×5 multimode plate reader. The biofilm formation was quantified by dividing OD540 with OD595.

P. aeruginosa PA14 [2] = test: Growth inhibition assay; type: cell-based, Pseudomonas aeruginosa; settings: 100 μM, 24 h
Description: A 5% dilution of overnight culture of P. aeruginosa PA14 (OD595=1.0) containing either a positive control or the synthesized compound (0-100 μM) was inoculated into wells of a 96-well polystyrene microtiter plate (Sigma-Aldrich). The plate was incubated at 37° C. for 24 h. OD595 of the suspension culture was measured on the VICTOR ×5 multimode plate reader.

LasR [3] = biological target: T1, LasR (Pseudomonas aeruginosa, UniProt P25084); test: LasR reporter gene assay (E. coli reporter strain, luminescence, competition with OdDHL); type: cell-based; settings: compound 1 μM; compound 1a 0, 0.1, 1, 10 and 100 μM
T1 construct: expressed in transfected cells; host or cells: E. coli DH5α (printed DHSα) co-transformed with pJN105L and pSC11

LasR [4] = biological target: T1, LasR; test: as above; type: cell-based; settings: compound 1 μM or 10 μM in the presence of 1 μM OdDHL (compound 1a)
Description: This assay was conducted by modifying a previously reported method. E. coli DHSα co-transformed with two plasmids, pJN105L (LasR expression plasmid) and pSC11 (lasI::lacZ fusion plasmid), was used as a bioassay reporter strain. Overnight culture of the reporter strain with 10 μg/mL gentamicin and 50 μg/mL ampicillin was diluted in the Luria-Bertani (LB) medium (1:100). Then, the reporter strain (optical density at 595 nm [OD595] was 0.3) mixed with either a positive control or the synthesized compound was incubated with OdDHL (Sigma-Aldrich, St. Louis, MO., USA) and 0.4% arabinose (Sigma-Aldrich). After incubation at 37° C. for 1.5 h, OD595 was measured on a VICTOR ×5 multimode plate reader (PerkinElmer, Waltham, Mass., USA). The β-galactosidase activity was determined using a Tropix plus kit (Applied Biosystems, USA), and luminescence was measured on the VICTOR ×5 multimode plate reader. RLU ratio was quantified by dividing luminescence with OD595.
LasR-binding affinity of the synthesized gingerols (compounds 4-10) with various alkyl chain lengths was determined by measuring luminescence of an E. coli reporter strain. The reporter strain carried two plasmids, pJN105L (LasR expression plasmid) (Lee, J. H.; Lequette, Y.; Greenberg, E. P. Activity of purified QscR, a Pseudomonas aeruginosa orphan quorum-sensing transcription factor. Mol. Microbiol. 2006, 59, 602609.) and pSC11 (las1::lacZ fusion plasmid) (Chugani, S. A.; Whiteley, M.; Lee, K. M.; D'Argenio, D.; Manoil, C.; Greenberg, E. P. QscR, a modulator of quorum-sensing signal synthesis and virulence in Pseudomonas aeruginosa. Proc. Natl. Acad. Sci. U.S.A. 2001, 98, 27522757.), which enabled assay of competitive binding of OdDHL with each gingerol derivative 4-10. Antagonistic activities of the synthesized compounds at 1 μM or 10 μM were determined by measuring luminescence in the presence of 1 μM OdDHL (compound 1a) and presented as relative luminescence unit (RLU) ratio. Three compounds (compounds 1b, 1c, and 1d) served as positive controls. […] Just as the LasR inhibition, inhibition of biofilm formation also strengthened as the carbon chain was extended at 10 μM ((B) of FIG. 3). However, inhibition of biofilm formation decreased with 9-gingerol (compound 9) and 10-gingerol (compound 10) at 100 μM ((C) of FIG. 3) because of increased bacterial growth inhibition. […] This effect may be due to the fact that compounds 9 and 10 act as a surfactant, which inhibits bacterial growth. Agonistic activities of compounds 4-10 in an E. coli reporter assay system in the absence of OdDHL were next examined.

P. aeruginosa PA14 [5] = test: Dynamic biofilm formation assay (drip-flow reactor, CLSM); type: cell-based, Pseudomonas aeruginosa; settings: for Biofilm thickness / Biofilm volume: 10 μM compound, Comstat2; for Biofilm thickness / Biofilm volume / Biofilm formation in CLSM images, in words: 48 h drip-flow reactor; for Biofilm formation in CLSM images, in words: compared with DMSO or compound 1c
Description: Glass slides were dipped into a Petri dish containing 2 mL of a P. aeruginosa PA14 suspension (OD595=1.0) and 18 mL of the AB medium, followed by incubation at 37° C. for 24 h to let the cells adhere to the slides. The slides were then inserted into a drip-flow reactor (DFR-110, BioSurface, Mont., USA). The AB medium with either a positive control or the synthesized compound (0-10 μM) was fed into the reactor continuously via a peristaltic pump (Masterflex C/L tubing pumps, Cole-Parmer, IL, USA) at 0.3 mL/min After operation of the reactor at 37° C. for 48 h, the cells on the slides were washed two times with PBS. The biofilm cells were stained with fluorescein isothiocyanate-labeled type IV ConA (Sigma-Aldrich) and SYPRO Ruby (Ruby, Invitrogen, Carlsbad, CA, USA) for 15 min, respectively. CLSM images were captured via a 20× objective lens (W N-Achroplan 20×/0.5 W [DIC] M27) with green fluorescence (ConA, excitation wavelength of 490 nm, emission wavelength of 525 nm) and red fluorescence (Ruby, excitation wavelength of 470 nm, emission wavelength of 618 nm) and were analyzed in the Zen 2011 software (Carl Zeiss, Jena, Germany). For quantification, biofilm volume (μm^3/μm^2) and average thickness (μm) were measured by means of Comstat2 in ImageJ.
A dynamic biofilm formation assay of compounds 41 and 42 was performed in a drip-flow reactor. Compound 1c served as a positive control, and DMSO served as a negative control. After 48 h drip-flow reactor operation, the biofilm was stained with Ruby and concanavalin A (ConA). Ruby (red) is a reagent for staining protein, and ConA (green) is for carbohydrate of biofilm. As shown in (A) of FIG. 8, the biofilm in the presence of DMSO formed with typical mushroom-like morphology. […] Biofilm volume and thickness with compound 41 were the lowest among the three groups (Table 1).

T1 sequence (P25084 whole entry): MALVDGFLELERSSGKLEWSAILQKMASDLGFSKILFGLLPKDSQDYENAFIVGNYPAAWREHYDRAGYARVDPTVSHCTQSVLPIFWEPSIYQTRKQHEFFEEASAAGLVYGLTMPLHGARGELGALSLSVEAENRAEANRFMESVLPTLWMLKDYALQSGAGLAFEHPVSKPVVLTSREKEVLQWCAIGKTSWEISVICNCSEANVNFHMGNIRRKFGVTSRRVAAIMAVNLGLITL

SMILES | Inhibition of biofilm formation at 100 μM, in words (P. aeruginosa PA14 [1]; 24 h, static) | Bacterial growth inhibition (P. aeruginosa PA14 [2]) | LasR-antagonistic activity / LasR-binding affinity (RLU ratio), in words (LasR [4]) | Biofilm thickness (P. aeruginosa PA14 [5]; CLSM) [μm] | Biofilm volume (P. aeruginosa PA14 [5]; CLSM) [μm^3/μm^2] | Biofilm formation in CLSM images, in words (P. aeruginosa PA14 [5]; 10 μM) | further results
CCCCC[C@H](O)CC(=O)CCc1ccc(O)c(OC)c1 [Compound 1b, (S)-6-gingerol] | – | – | – | – | – | – | Biofilm formation and production of virulence factors (previously demonstrated) (P. aeruginosa; competition with OdDHL for LasR): reduces biofilm formation and production of virulence factors
O=C1C=C(Br)/C(=C/Br)O1 [Compound 1d, (Z)-4-bromo-5-(bromomethylene)furan-2(5H)-one] | – | – | – | – | – | – | Expression of virulence factors (prior report) (P. aeruginosa; interference with P. aeruginosa QS systems): inhibits the expression of virulence factors
CCCCCCCCC(O)CC(=O)CCc1ccc(O)c(OC)c1 (stereo not drawn) [Compound 9, 5 -Hydroxy-1-(4-hydroxy-3-methoxyphenyl)tridecan-3-one] | decreased | inhibited bacterial growth significantly | – | – | – | – | –
CCCCCCCCCC(O)CC(=O)CCc1ccc(O)c(OC)c1 (stereo not drawn) [Compound 10, 5-Hydroxy-1-(4-hydroxy-3-methoxyphenyl)tetradecan-3-one] | decreased | inhibited bacterial growth significantly | – | – | – | – | –
CCCCCCC[C@@H](O)CC(=O)/C=C/c1ccc(O)c(OC)c1 [Compound 41, (R,E)-5-Hydroxy-1-(4-hydroxy-3-methoxyphenyl)dodec-1-en-3-one] | – | bacterial growth inhibition was not observed | stronger LasR-binding affinity | 10.3 ± 0.1 | 7.4 ± 0.2 | relatively thin and sparse; also recorded: inhibited biofilm formation more effectively than compound 1c did | Inhibition of biofilm formation, in words (P. aeruginosa PA14 [1]; 10 μM, 24 h, static): greater inhibition of biofilm formation; Binding reversibility to LasR (LasR [3]): binds reversibly to LasR; Volume of carbohydrates in biofilm compared to the other groups (P. aeruginosa PA14 [5]; ConA staining, CLSM, 10 μM): 47-74%; Volume of proteins in biofilm compared to the other groups (P. aeruginosa PA14 [5]; Ruby staining, CLSM, 10 μM): 23-56%
CCCCCCC[C@@H](O)CC(=O)CCc1ccc(O)c(OC)c1 [Compound 42, (R)-5-Hydroxy-1-(4-hydroxy-3-methoxyphenyl)dodecan-3-one] | – | bacterial growth inhibition was not observed | much stronger LasR-binding affinity than compound 1c | 13.9 ± 0.1 | 9.7 ± 1.1 | relatively thin and sparse; also recorded: inhibited biofilm formation more effectively than compound 1c did | Biofilm formation relative to compound 1c (P. aeruginosa PA14 [1]; static assay, 10 μM, effect of compound 1c set to 100%): 72%

— US11964935B2, “Gingerol derivative having inhibitory activity against biofilm formation and pharmaceutical composition comprising same as effective ingredient for preventing or treating biofilm-caused infection symptom” (Korea University Research and Business Foundation, Sejong …, priority 2017, dated 2024)
